In patent publication US20260241026A1, “THERAPEUTIC METHOD FOR LOW-DRUG-SENSITIVITY CANCERS BY ADMINISTRATION OF ANTI-MUC1 ANTIBODY-DRUG CONJUGATE” (priority 2023, published 2026):

Columns and labels:
[1] = tested on: bladder cancer PDX model (NIBIO-K071); assay: Antitumor test in bladder cancer patient-derived xenograft model NIBIO-K071; format: in vivo, female nude mice
Excerpt: NIBIO-[…] was obtained as a bladder cancer patient-derived xenograft model (PDX model) from the National Institute of Biomedical Innovation. A frozen tumor section of NIBIO-[…] was thawed and subcutaneously transplanted to 4- to 6-week old female NSG mice (NOD. Cg-Prkdc Il2rg<tm1Wjl>/SzJ: purchased from Charles River Laboratories Japan, Inc.) using a trocar. Grown tumor was collected, cut into small pieces, and transplanted again to female NSG mice or female nude mice (CAnN. Cg-Foxn1nu/CrlCrlj: purchased from Charles River Laboratories Japan, Inc.) using a trocar, followed by extended growth. TA-MUC1-, Nectin-4-, and TROP2-positive findings were confirmed in the tumor of this model by immunohistochemical staining (IHC). An estimated tumor volume (ETV) was calculated as described below. Estimated tumor volume (volume,mm^3)=Major axis (mm)×Minor axis (mm)^2/2 The female nude mice with transplanted NIBIO-[…] were grouped 25 days after transplantation when their average tumor volume became about 200 mm^3. […] ABS buffer was administered to a Vehicle administration group. Six mice per group were used in all the groups. After initial administration, body weights and tumor sizes were measured twice a week, and estimated tumor volumes were calculated.

[2] = tested on: human breast cancer cell line HCC70; assay: Antitumor test in model with transplanted breast cancer cell line HCC70 (Example 3); format: in vivo, female nude mouse
Experimental: The mice were grouped 18 days after transplantation when their average tumor volume became about 165 mm^3. […] ABS buffer was administered to a Vehicle administration group. Six mice per group were used in all the groups.

[3] = tested on: lung cancer PDX model (NIBIO-NS1); assay: Antitumor test in lung cancer patient-derived xenograft model NIBIO-NS1; format: in vivo, female nude mice
Excerpt: NIBIO-NS1 was obtained as a lung cancer PDX model from the National Institute of Biomedical Innovation. A frozen tumor section of NIBIO-NS1 was thawed and subcutaneously transplanted to 5-week old female NSG mice (NOD. Cg-Prkdc Il2rg<tm1Wjl>/SzJ: purchased from Jackson Laboratory Japan, Inc.) using a trocar. Grown tumor was collected, cut into small pieces, and transplanted again to female nude mice (CAnN. Cg-Foxn1nu/CrlCrlj: purchased from Jackson Laboratory Japan, Inc.) using a trocar, followed by extended growth.
The female nude mice with transplanted NIBIO-NS1 were grouped 10 days after transplantation when their average tumor volume became about 157 mm^3. […] Six mice per group were used in groups 1 and 2, and 12 mice were used in group 3.

[4] = 10 mg/kg, QW × two doses (Days 0, 7)
[5] = Day 21, 10 mg/kg, QW × 2, intravenous

Substance: sacituzumab govitecan [TROP2-SN38 ADC, reference compound]
- tumor regression [1, 4]: did not reach tumor regression
- ETV (mm^3) Mean [1, 5]: 383 mm^3
- tumor regression [2, 4]: no tumor regression
- ETV (mm^3) Mean [2, 5]: 361 mm^3

Substance: datopotamab deruxtecan [TROP2-DXd ADC, reference compound]
- tumor course after regrouping of the TROP2-DXd ADC administration group ([3]; 10 mg/kg on Day 11 to tumors pre-treated with TROP2-DXd ADC, up to Day 31 (TA-MUC1-DXd ADC) or Day 21 (TROP2-DXd ADC)): grew continuously
- tumor regression effect ([3]; Day 11, 10 mg/kg on Day 0, NIBIO-NS1): no tumor regression
- ETV (mm^3) Mean ([3]; Day 11, 10 mg/kg, Day 0, intravenous, NIBIO-NS1): 453 mm^3

Substance: enfortumab vedotin [Nectin-4-MMAE ADC, reference compound]
- tumor regression ([1]; 3 mg/kg, QW × three doses (Days 0, 7, 14)): did not reach tumor regression
- ETV (mm^3) Mean ([1]; Day 21, 3 mg/kg, QW × 3, intravenous): 772 mm^3
